For this assay, the target named is T1, FPR1 (Homo sapiens, UniProt P21462).
T1 construct: purchased Promega (in-house HiBiT-GPCR construct library, NanoBRET)
T1 sequence (P21462 1-350): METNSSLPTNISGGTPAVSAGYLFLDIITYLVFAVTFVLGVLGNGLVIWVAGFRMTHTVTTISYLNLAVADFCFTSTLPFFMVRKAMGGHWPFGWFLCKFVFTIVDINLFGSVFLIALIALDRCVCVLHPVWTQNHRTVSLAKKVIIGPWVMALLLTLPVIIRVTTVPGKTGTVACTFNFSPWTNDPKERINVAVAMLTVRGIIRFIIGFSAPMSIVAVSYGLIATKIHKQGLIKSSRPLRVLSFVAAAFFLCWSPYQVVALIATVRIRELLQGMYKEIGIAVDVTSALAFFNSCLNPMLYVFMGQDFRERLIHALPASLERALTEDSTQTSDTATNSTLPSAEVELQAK
The assay can be described thus: NanoBRET screen HiBiT-FPR1 in HEK293. Format: binding. As for the experimental part: Each tracer candidate was screened across the entire library of HiBiT-GPCR constructs using NanoBRET as the detection modality. As depicted in Figure 4A, the specificity of interactions was evaluated through decrease in BRET due to competitive displacement of a bound tracer by excess parental compound. Each tracer was analyzed for binding to each HiBiT-GPCR fusion in the absence and in the presence of competing parental compound. Briefly, HEK293 cells were transfected with HiBiT-GPCR constructs diluted into promoterless DNA to reduce expression and maximize translocation to the cell surface. Each tracer candidate was then screened at concentrations of 1 μM and 0.1 μM across cells expressing these fusions. Cells were treated for 1.5 h with tracer either alone or in the presence of 20 μM competing parental compound (i.e., control). BRET was measured upon addition of purified LgBiT and subsequent complementation with HiBiT genetically fused to a GPCR. The specificity of interactions was assessed through a decrease in BRET signal due to competitive displacement of the bound tracer. To further gauge the robustness of these interactions, the fold response over the control (i.e., BRETtracer/BRETcontrol) was calculated. We chose a 1.5-fold response, which translates to ≥7-fold signal over noise as the minimal threshold required to score an interaction as positive. […]. Below we highlight the screening results obtained for our exemplary fluorescent tracers based on Clozapine, Amitriptyline and AZD1283.
HiBiT-GPCR DNA constructs were diluted in 10 mM Tris pH 8 to a final concentration of 0.01 μg/μL, arrayed in 96-well plates and stored at −20 °C. For transfection, HEK293 cells were suspended in Opti-MEM (without phenol red) supplemented with 2% fetal bovine serum (Seradigm) and 100 units/mL penicillin–streptomycin (Gibco) at a final concentration of 220,000 cells/mL and dispensed into white 96-well plates at 90 μL/well. Subsequent transfections and screens were carried using an Agilent Bravo Automated Liquid Handling Platform. First, the 96-well HiBiT DNA arrays were diluted 25-fold in Opti-MEM (without serum or phenol red) to a final concentration of 0.0004 μg/μL and 20 μL of the diluted DNAs were transferred into new 96-well plates. Next, promoterless carrier DNA (1 μg/μL) was diluted 25-fold (0.04 μg/μL) and then dispensed into the diluted arrays at 20 μL/well. Following brief mixing, Viafect transfection reagent (Promega) diluted 16-fold into Opti-MEM was dispensed into the plates at 40 μL/well. After mixing by pipetting, plates were incubated for 10 min on the pipetting station deck. The DNA-transfection reagent complexes were then added to plates containing cells. To facilitate the screen, 10 μL of DNA-transfection reagent complexes were added in duplicates to the top 4 and bottom 4 rows, resulting in two identical 48-well arrays per plate. Plates with transfected cells were incubated for 18–20 h at 37 °C/5% CO2. A screen of each tracer across the entire library using two different concentrations requires duplicate plates of transfected cells. Depending on the number of tracers being screened, transfections can be scaled up using the same ratios. The next day, for each tracer, four 20× screening solutions in tracer dilution buffer (Promega) were prepared: two duplicates at final concentration of 20 μM and two duplicates at a final concentration of 2 μM. A competing unmodified compound was added to one of each duplicate at a final concentration of 400 μM. The four resulting solutions were diluted 4-fold in Opti-MEM without serum or phenol red to generate 5× solutions (5 µM and 0.5 µM tracer +/− 100 μM competing compound). To screen the library, a BioTek MultiFlo FX liquid dispenser was used to dispense 22.5 µL of tracer solution to the top 4 rows and 22.5 µL tracer + competing compound solution to the 4 bottom rows. Plates were briefly mixed on an orbital shaker and incubated for 1.5 h at room temperature. […]

The structures appear in SMILES notation.

For the compound `O=C(CCc1ccc2n1[B-](F)(F)[N+]1=C(c3ccc[nH]3)C=CC1=C2)NCc1ccc(C(=O)NCCOCCC(=O)N[C@@H]2CC[C@@]3(O)[C@H]4Cc5ccc(O)c6c5[C@@]3(CCN4CC3CC3)[C@H]2O6)cc1` [Naltrexone-3-NB590], the “NanoBRET Fold Response” value is, setting by setting: (FPR1, tracer 0.1μM) 0.90; (FPR1, tracer 1μM) 0.98.

Consider `CN1CCN(C2=Nc3cc(Cl)ccc3N(CC(=O)NCCOCCOCCOCCOCCNC(=O)CCc3ccc4n3[B-](F)(F)[N+]3=C(c5ccc[nH]5)C=CC3=C4)c3ccccc32)CC1` [Clozapine-c-2-NB590], for which the “NanoBRET Fold Response” value is, setting by setting: (FPR1, 0.1μM tracer) 0.98; (FPR1, 1μM tracer) 1.04.

Take `O=C(CCOCCOCCOCCOCCNC(=O)CCc1ccc2n1[B-](F)(F)[N+]1=C(c3ccc[nH]3)C=CC1=C2)NCCCN1CCN(C2=Nc3cc(Cl)ccc3Nc3ccccc32)CC1` [Clozapine-a-2-NB590]: the “NanoBRET Fold Response” value reads like this: (FPR1, 0.1μM tracer) 1.01; (FPR1, 1μM tracer) 1.22.

As for `CCOC(=O)c1cc(C#N)c(N2CCC(C(=O)NS(=O)(=O)Cc3ccccc3/C=C/C(=O)NCCNC(=O)CCc3ccc4n3[B-](F)(F)[N+]3=C(c5ccc[nH]5)C=CC3=C4)CC2)nc1C` [AZD1283-1-NB590], the “NanoBRET Fold Response” value was found to be 1.09 (FPR1, 0.1μM) and 1.05 (FPR1, 1μM).

On to `COc1ccc2[nH]c(-c3ccc(CNC(=O)CCOCCOCCOCCOCCNC(=O)CCc4ccc5n4[B-](F)(F)[N+]4=C(c6ccc[nH]6)C=CC4=C5)cc3)c(CCNC(C)=O)c2n1` [AzomelatoninICO9-2-NB590], for which the “NanoBRET Fold Response” value runs as follows: (0.1μM tracer) 1.02; (1μM tracer) 0.90.

In the case of `CCCn1c(=O)c2[nH]c(-c3ccc(OCC(=O)NCCNC(=O)CCOCCNC(=O)c4ccc(CNC(=O)CCc5ccc6n5[B-](F)(F)[N+]5=C(c7ccc[nH]7)C=CC5=C6)cc4)cc3)nc2n(CCC)c1=O` [XAC-3-NB590], the “NanoBRET Fold Response” value is 1.15 (FPR1, tracer 0.1μM) and 1.10 (FPR1, tracer 1μM).

With `COc1ccccc1N1CCN(CCCCN2C(=O)c3ccc(CNC(=O)CCOCCNC(=O)c4ccc(CNC(=O)CCc5ccc6n5[B-](F)(F)[N+]5=C(c7ccc[nH]7)C=CC5=C6)cc4)cc3C2=O)CC1` [NAN-190-3-NB590], the “NanoBRET Fold Response” value reads like this: (FPR1, tracer 0.1μM) 0.95; (FPR1, tracer 1μM) 1.09.

In the case of `O=C(CCc1ccc2n1[B-](F)(F)[N+]1=C(c3ccc[nH]3)C=CC1=C2)NCc1ccc(C(=O)NCCOCCOCCNCC(O)COc2cccc3ccccc23)cc1` (stereo not shown) [Propranolol-3-NB590], the “NanoBRET Fold Response” value reads like this: (FPR1, 0.1μM) 1.02; (FPR1, 1μM) 0.98.

For the compound `COc1ccc2c(n1)c(CCNC(C)=O)cn2CCNC(=O)CCc1ccc2n1[B-](F)(F)[N+]1=C(c3ccc[nH]3)C=CC1=C2` [Azamelatonin-1-NB590], the “NanoBRET Fold Response” value stood at 0.96 (0.1μM tracer) and 1.09 (1μM tracer).

With `O=C(CCOCCOCCOCCOCCNC(=O)CCc1ccc2n1[B-](F)(F)[N+]1=C(c3ccc[nH]3)C=CC1=C2)NCCCN1CCN(C2=Nc3ccccc3Oc3ccc(Cl)cc32)CC1` [Loxapine-a-2-NB590], the “NanoBRET Fold Response” value turned out to be 0.99 (FPR1, tracer 0.1μM) and 1.10 (FPR1, tracer 1μM).

`COc1ccccc1N1CCN(CCCCN2C(=O)c3ccc(CNC(=O)CCOCCOCCOCCOCCNC(=O)CCc4ccc5n4[B-](F)(F)[N+]4=C(c6ccc[nH]6)C=CC4=C5)cc3C2=O)CC1` [NAN-190-2-NB590]: the “NanoBRET Fold Response” value reads like this: (FPR1, tracer 0.1μM) 1.09; (FPR1, tracer 1μM) 1.04.

On to `CC(C)N(CC[C@H](c1ccccc1)c1cc(CCNC(=O)c2ccc(CNC(=O)CCc3ccc4n3[B-](F)(F)[N+]3=C(c5ccc[nH]5)C=CC3=C4)cc2)ccc1O)C(C)C` [Tolterodine-BZ-NB590], for which the “NanoBRET Fold Response” value (FPR1, tracer 0.1μM) turned out to be 1.02 and the “NanoBRET Fold Response” value (FPR1, tracer 1μM) turned out to be 1.02.

For the compound `O=C(CCc1ccc2n1[B-](F)(F)[N+]1=C(c3ccc[nH]3)C=CC1=C2)NCCOCCOCCNC(=O)OCCOCCN1CCN(C2=Nc3ccccc3Sc3ccccc32)CC1` [Quetiapine-a-2-NB590], the “NanoBRET Fold Response” value amounted to 1.05 (FPR1, tracer 0.1μM) and 0.92 (FPR1, tracer 1μM).

For `CN1CCN(C2=Nc3cc(Cl)ccc3Nc3ccc(CNC(=O)CCOCCOCCOCCOCCNC(=O)CCc4ccc5n4[B-](F)(F)[N+]4=C(c6ccc[nH]6)C=CC4=C5)cc32)CC1` [Clozapine-b-2-NB590], the “NanoBRET Fold Response” value runs as follows: (FPR1, 0.1μM tracer) 0.98; (FPR1, 1μM tracer) 1.00.

`CC(C)N(CC[C@H](c1ccccc1)c1cc(CCNC(=O)CCOCCOCCOCCOCCNC(=O)CCc2ccc3n2[B-](F)(F)[N+]2=C(c4ccc[nH]4)C=CC2=C3)ccc1O)C(C)C` [Tolterodine-2-NB590]: the “NanoBRET Fold Response” value turned out to be 1.07 (FPR1, tracer 0.1μM) and 0.85 (FPR1, tracer 1μM).

`CN(C)CCC=C1c2ccccc2CCc2ccc(C(=O)NCCNC(=O)CCOCCOCCOCCOCCNC(=O)CCc3ccc4n3[B-](F)(F)[N+]3=C(c5ccc[nH]5)C=CC3=C4)cc21` [Amitriptyline-a-2-NB590]: the “NanoBRET Fold Response” value (tracer at 0.1μM) worked out at 1.02 and the “NanoBRET Fold Response” value (tracer at 1μM) is 1.04.

Consider `Cc1cc2c(s1)Nc1ccccc1N=C2N1CCN(CCCNC(=O)CCOCCOCCOCCOCCNC(=O)CCc2ccc3n2[B-](F)(F)[N+]2=C(c4ccc[nH]4)C=CC2=C3)CC1` [Olanzapine-a-2-NB590], for which the “NanoBRET Fold Response” value by setting is: (FPR1, tracer 0.1μM) 1.09; (FPR1, tracer 1μM) 1.01.

On to `N#CN=C(NCCCOc1cccc(CN2CCCCC2)c1)NCCNC(=O)CCOCCOCCOCCOCCNC(=O)CCc1ccc2n1[B-](F)(F)[N+]1=C(c3ccc[nH]3)C=CC1=C2` [Aminopotentidine-2-NB590], for which the “NanoBRET Fold Response” value (FPR1, tracer 0.1μM) is 0.99 and the “NanoBRET Fold Response” value (FPR1, tracer 1μM) came to 0.97.

Take `Cc1nc2n(c(=O)c1CCN1CCC(c3noc4cc(F)ccc34)CC1)CCCC2OC(=O)NCCOCCOCCOCCOCCNC(=O)CCc1ccc2n1[B-](F)(F)[N+]1=C(c3ccc[nH]3)C=CC1=C2` (stereo not shown) [Risperidone-2-NB590]: the “NanoBRET Fold Response” value was 0.97 (FPR1, tracer 0.1μM) and 0.91 (FPR1, tracer 1μM).

`CN(C)CCC=C1c2ccccc2CCc2ccc(C(=O)NCCNC(=O)CCOCCOCCOCCOCCNC(=O)CCc3ccc4n3[B-](F)(F)[N+]3=C(c5ccc[nH]5)C=CC3=C4)cc21` [Amitriptyline-b-2-NB590]: the “NanoBRET Fold Response” value (tracer at 0.1μM) is on record as 0.96 and the “NanoBRET Fold Response” value (tracer at 1μM, listed as amitriptyline-b-2-NB590) amounted to 1.02.
